For one data set, the system named is dopamine D1. The note with it: cited from earlier work.
A further data set deals with dopamine D1 receptor (Rattus norvegicus, UniProt P18901). Kind of data set: biochemical. Particulars: read-out: Ki, dopamine stimulated adenylate cyclase.
For data set [1] the following is noted: Life Sci. 34 (1984), 1529; cited from earlier work.
The test system of a further data set is rats. Kind of data set: acute toxicity in rats, intraperitoneal. In kind it is in vivo. The note with it: 100 mg/kg intraperitoneal. How it is done: (§1) 8-chloro-7-hydroxy-3-methyl-5-(5-indanyl)-2,3,4,5-tetrahydro-1H-3-benzazepine and several other compounds of formula I were atoxic when given to rats and mice in a dosis of 100 mg/kg intraperitonealt.
The subject of another data set is mice. As to the kind of experiment: acute toxicity in mice, intraperitoneal. In kind it is in vivo. Particulars: 100 mg/kg intraperitoneal. How it is done:
as §1

The mark [2] stands for this setting: Life Sci. 31 (1982), 637 et seq.

Where a name gives a salt, the structure may show the parent alone. Read-outs that look alike come from different tables or passages of the source.

dopamine D1 receptor, sequence (P18901 whole entry): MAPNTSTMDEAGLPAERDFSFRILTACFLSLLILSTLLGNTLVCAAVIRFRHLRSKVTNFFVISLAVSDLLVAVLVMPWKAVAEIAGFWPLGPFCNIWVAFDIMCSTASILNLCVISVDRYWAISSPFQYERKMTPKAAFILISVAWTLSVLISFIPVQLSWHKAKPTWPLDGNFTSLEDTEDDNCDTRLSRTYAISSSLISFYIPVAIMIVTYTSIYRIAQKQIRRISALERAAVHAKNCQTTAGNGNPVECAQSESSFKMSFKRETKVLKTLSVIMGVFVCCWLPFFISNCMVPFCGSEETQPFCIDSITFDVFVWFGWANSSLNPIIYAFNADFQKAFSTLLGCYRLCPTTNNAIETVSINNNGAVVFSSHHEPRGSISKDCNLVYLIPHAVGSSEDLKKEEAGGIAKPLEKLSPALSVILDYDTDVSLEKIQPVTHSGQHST
From the text for dopamine D1 receptor: Ki is the affinity of the tested compound for the dopamine D1 receptor as estimated from Schild analysis.

“2,3,4,5-tetrahydro-9-chloro-7,8-dihydroxy-1-(4-hydroxyphenyl)-1H-3-benzazepine [SKF 82526]”: the “dopamine D1 activity” value in the data set on dopamine D1 (setting [2]) was “selective but partial dopamine D1 agonists”.
Broadly, the Ki is the equilibrium dissociation constant of an inhibitor or competing ligand from its target. Consider `CN1CCc2cc(Cl)c(O)cc2C(c2cccc3ccoc23)C1` (racemic) [Example No. 5h, 8-chloro-7-hydroxy-3-methyl-5-(7-benzofuranyl)-2,3,4,5-tetrahydro-1H-3-benzazepine], for which the Ki on dopamine D1 receptor is 6 nM.
The same measure, in the same setting: under `CN1CCc2cc(Cl)c(O)cc2C(c2ccc3c(c2)CCCC3)C1` (racemic) [Example No. 5j, 8-chloro-7-hydroxy-5-(1,2,3,4-tetrahydronaphth-6-yl)-3-methyl-2,3,4,5-tetrahydro-1H-3-benzazepine hydrochloride] stands 21 nM.
As to `CN1CCc2cc(Cl)c(O)cc2[C@@H](c2ccccc2)C1` [SCH 23390, R-8-chloro-7-hydroxy-2,3,4,5-tetrahydro-3-methyl-5-phenyl-1H-3-benzazepine], in data set [1], the duration of action entry is recorded as “short duration of action” and the peroral adsorption result is recorded as “poor peroral adsorption”. In the data set on dopamine D1 (Eur.J.Pharmacol. 91 (1983), 153 et seq.), the “dopamine D1 activity” value is recorded as “selective D1 dopamine antagonist”.
In the case of `CN1CCc2cc(Cl)c(O)cc2C(c2ccc(Cl)c3c2OCCC3)C1` (racemic) [Example No. 5f, 8-chloro-7-hydroxy-3-methyl-5-(5-chlorochroman-8-yl)-2,3,4,5-tetrahydro-1H-3-benzazepine], the Ki on dopamine D1 receptor was 10 nM.
Take `Br.CN1CCc2cc(Cl)c(O)cc2C(c2ccc3c(c2)CCC3)C1` (stereo not shown) [Example No. 5a, 8-chloro-7-hydroxy-3-methyl-5-(5-indanyl)-2,3,4,5-tetrahydro-1H-3-benzazepine hydrobromide]: the toxicity in rats entry in the data set on rats is “atoxic”. The toxicity in mice entry in the data set with mice is “atoxic”.
As to `Oc1cc2c(cc1O)C(c1ccccc1)CNCC2` (stereo not shown) [SKF 38393, 2,3,4,5-tetrahydro-7,8-dihydroxy-1-phenyl-1H-3-benzazepine], the “dopamine D1 activity” value in the data set on dopamine D1 (setting [2]) is “selective but partial dopamine D1 agonists”.

(Values after US4751222A, “2,3,4,5-tetrahydro-1H-3-benzazepines and CNS affecting use thereof” (Novo Industri A/S, priority 1985, dated 1988).)
